{
  "source": "patent US12257290B2",
  "about": "“PIC1 inhibition of myeloperoxidase oxidative activity in an animal model” (priority 2018, dated 2025)",
  "key": {"[1]": {"test_system": "complement activation in normal human serum (NHS)", "test": "C1-antiC1q immune complex-initiated complement activation in normal human serum (C5a, iC3b, SC5b-9 ELISA)", "type": "biochemical", "protocol": "(§1) Immune complex activation of NHS was performed as follows. NHS was stimulated with three different types of immune complexes (IC) to induce complement activation. Heat-aggregated IgG was generated by incubating intravenous immune globulin at 50 mg/ml at 63° C. for 30 min [26]. Ovalbumin-antiovalbumin immune complexes were made by incubating 0.01 ml anti-ovalbumin antibody with an equal volume of ovalbumin, at 0.25 mg/nil, at 37° C. for 30 minutes and then storing at 4° C. overnight. C1 immune complexes were formed by incubating 0.02 ml anti-C1q goat sera with 5 μl of C1, at 200 μg/ml, at 30° C. for 30 minutes and then placing in an ice water bath. For C5a and C5b-9 assays, activation of NHS was performed by pre-incubating 5% NHS with titrating concentrations of PA-dPEG24 in 0.3 ml of GVBS^++ buffer for 30 minutes at room temperature. Then […] of either heat-aggregated IVIg, or ovalbumin IC, or 5 μI of C1-antiC1q IC was added to the mix for 30 min. at 37° C. This reaction was stopped with the addition of an equal volume of GVBS^−−. For iC3b detection, 1% NHS was used and the rest of the protocol remained the same.\nELISA was performed as follows. Samples were assayed using C5a, iC3b, and SC5b-9 ELISAs. A C5a ELISA kit (R&D Systems) was used per the manufacturer's instructions. ELISAs for iC3b and SC5b-9 were performed as previously described. In iC3b ELISA, a goat anti-human C3 antibody (Complement Technology, Tyler TX) was used in for capture, a mouse anti-human iC3b antibody (Quidel, San Diego CA) for probing, and a goat anti-mouse HRP antibody for detection. In SC5b-9 ELISA, a rabbit anti-human SC5b-9 antibody (Complement Technology) was used for capture, a mouse anti-human SC5b-9 monoclonal antibody (Quidel) for probing, and a chicken anti-mouse HRP antibody for detection. Colorimetric detection was performed with TMB, stopped with H2SO4 and read on a BioTek Synergy HT plate reader at 450 nm.\nDue to the importance of anti-C1q antibodies in a subset of patients with SLE, immune complexes with human C1 and anti-C1q antibodies (goat) were generated. […]"}, "Human neutrophil MPO": {"test_system": "Human neutrophil MPO", "test": "Purified MPO inflammatory peritonitis model (peritoneal wash TMB peroxidase activity, PicoGreen free DNA)", "type": "in vivo, Wistar rats", "details": "for MPO activity in peritoneal wash: P<0.019", "protocol": "Human neutrophil MPO (Lee Biosolutions) was diluted in sterile saline to the respective doses necessary for each experiment. PIC1 in the form of PA-dPEG24 (PolyPeptide Group) was solubilized and diluted in 0.5 M Histidine buffer, adjusted to pH 6.5, and then diluted to each of the respective doses used for each experiment.\nWistar rats were sedated and injected IP with purified MPO in experiments that were conducted under an Eastern Virginia Medical School IRB approved protocol (#17-008). 16-week-old male Wistar rats were used in these experiments weighing approximately 200 g. The rats received sedation with ketamine and acepromazine prior to all procedures. They then received a 1 ml IP injection with MPO in saline. After the time interval indicated, a tail vein phlebotomy was performed to obtain 250 mcl of blood in a K2EDTA Microtainer (BD). The animals were then euthanized with FatalPlus IV. A peritoneal wash with 20 ml of ice cold PBS was then performed by […] followed by massage and extraction from a small hole in the peritoneum with a blunt needle and syringe.\nCells were sedimented and supernatants were tested for MPO peroxidation of TMB, with sample processing performed as follows. Peritoneal wash fluid was centrifuged at 1500×g for 5 minutes to sediment cells and other debris. The resulting peritoneal wash fluid supernatant was aliquoted and frozen for further analysis. The cell pellet was resuspended to the original volume with saline and cells were counted on a hemocytometer. Plasma was collected after centrifugation of the lavender top blood collection tubes.\nThe MPO activity assay was performed as follows. Peritoneal fluid, along with pure MPO for a standard curve, was serially titrated in 0.1 ml in a 96 well plate followed by the addition of 0.1 ml of 3,3′,5,5′-tetramethylbenzidine (TMB) (Fisher). After one minute, 0.1 ml of 2.5 M H2SO4 was added to stop the reaction and the plate was read at 450 nm. Using linear regression from the standard curve, the MPO activity was calculated for each sample.\nIn the peritoneal wash fluid supernatants, free DNA was measured as a marker of NETosis via the PicoGreen assay. Peritoneal fluid or plasma, along with DNA (Invitrogen) for a standard curve, was serially titrated in 0.1 ml in a 96 well plate and used in the Quant-iT PicoGreen (Fisher) assay. The PicoGreen solution was diluted as directed by the kit instructions and added to samples, which were incubated in the dark for 10 minutes and then read on a fluorescent microplate reader at excitation 480 nm/emission 520 nm). Using linear regression from the standard curve, the DNA concentration was quantitated for each sample.\nThe effect of PIC1, in particular PA-dPEG24, on the inhibition of MPO and NETosis in MPO-mediated peritonitis was then assayed. A series of increasing doses of PA-dPEG24 (1 mg, 5 mg, and 20 mg) were injected IP immediately, i.e., one minute after purified MPO was inoculated, into the peritoneum followed 2 hours later by phlebotomy, euthanasia and peritoneal wash. A control was used where no PA-dPEG24 was administered. An MPO activity assay and a free DNA assay according to the methods discussed above were conducted for each of 0 mg, 1 mg, 5 mg, and 20 mg PA-dPEG24 doses."}, "[2]": {"test_system": "complement activation in normal human serum (NHS)", "test": "Heat-aggregated IgG immune complex-initiated complement activation in normal human serum (C5a, iC3b, SC5b-9 ELISA)", "type": "biochemical", "protocol": "as §1\nELISA was performed as follows. Samples were assayed using C5a, iC3b, and SC5b-9 ELISAs. […] Colorimetric detection was performed with TMB, stopped with H2SO4 and read on a BioTek Synergy HT plate reader at 450 nm. […]"}},
  "note": "Ends that are not written are not given here.",
  "data": [
    {"substance": "IALILEPICCQERAA-dPEG24 (cysteine pairing not given here) [PA-dPEG24, 15-amino acid PEGylated peptide, 24 PEG moieties at the C-terminus]", "values": [
      {"measurement": "C1-antiC1q generation of iC3b", "setting": "[1]; 2 mM PA-dPEG24, P<0.02", "value": "inhibited by 2 mM PA-dPEG24 (P<0.02) to a level similar to NHS baseline"},
      {"measurement": "PA-dPEG24 concentration inhibiting C1-antiC1q generation of SC5b-9", "setting": "[1]; P<0.03", "value": "≥ 0.13", "unit": "mM"},
      {"measurement": "C1-antiC1q generation of C5a in NHS", "setting": "[1]; at each concentration, P<0.03", "value": "dose-dependently inhibited"},
      {"measurement": "MPO activity in peritoneal wash", "setting": "Human neutrophil MPO; 1 mg (5 mg/kg) IP, 2 h", "value": "Statistically significant decreases"},
      {"measurement": "MPO activity in peritoneal wash", "setting": "Human neutrophil MPO; 5 mg (25 mg/kg) IP, 2 h", "value": "Statistically significant decreases"},
      {"measurement": "free DNA in the peritoneal fluid (PicoGreen)", "setting": "Human neutrophil MPO; 20 mg (100 mg/kg) IP, 2 h, P=0.11", "value": "trend towards decreased free DNA"},
      {"measurement": "decrease in peroxidase activity by TMB in peritoneal wash", "setting": "Human neutrophil MPO; 20 mg (100 mg/kg) IP, 2 h, vs no PA-dPEG24, P=0.015", "value": 5, "unit": "fold"},
      {"measurement": "free DNA in blood plasma (PicoGreen)", "setting": "Human neutrophil MPO; highest dose, P=0.22 vs no PIC1", "value": "lowest with the highest dose"},
      {"measurement": "reduction of C5a generation", "setting": "[2]; 1 mM PA-dPEG24, vs heat-aggregated IgG with no inhibitor, P=0.002", "value": 61, "unit": "%"},
      {"measurement": "PA-dPEG24 concentration giving statistically significant inhibition of effector (C5a, iC3b, SC5b-9) generation", "setting": "[2]; heat-aggregated IgG in NHS, each assay, P<0.05 vs no inhibitor", "value": "≥ 0.5", "unit": "mM"}
    ]}
  ]
}
